The results in this text go back to patent US11945824B2, “Heterocyclic compounds as anti-viral agents” (priority 2020, dated 2024).

Where two headings read alike, the source gives them in different places.

Assay [1] deals with Human RSV-A (“Long” strain). The experiment in a line: RSV-A assay (CPE, ATPlite readout in Hep-2 cells). The settings on record: human respiratory syncytial virus, read-out: Human RSV-A (“Long” strain) EC50. The assay is classed as cell-based. From the text:
Hep-2 cells, (originally derived from tumors grown in irradiated-cortisonised weanling rats that had been injected with epidermoid carcinoma tissue from a person's larynx, but later found to be indistinguishable from HeLa cells by PCR DNA analysis), were used for the culturing of genotype A, “Long” strain RSV. Flasks were inoculated with RSV and viral stocks were collected once cytopathic effect (CPE) was greater than 90%. Viral stocks in 25% sucrose media were snap frozen using liquid nitrogen to increase viral stability. Viral stock titers were quantified by tissue culture infectious dose 50% (TCID50) using 8,000 cells per well and 3-fold viral dilutions across a 96-well plate, cultured for 4 days. Viral stock titers were also quantified by a plaque forming unit assay, as described elsewhere.
Following extensive parameter testing, the final assay is run as follows: Hep-2 cells are seeded into the inner 60 wells of a 96-well plate at 8,000 cells per well in a volume of 50 μL using Growth Media (DMEM without phenol red, 1% L-Glut, 1% Penn/Strep, 1% nonessential amino acids, 10% heat-inactivated FBS). 2-fold serial dilutions of control and test compounds are added to the wells in duplicate in a total volume of 25 μL. Viral stock is then added to the wells at a multiplicity of infection (MOI) of 0.1 in a volume of 25 μL, bringing the total volume of each well to 100 μL. The MOI is calculated using the PFU/mL, or TCID50 if unavailable. Each 96-well plate has a control column of 6 wells with cells and virus but no compound (negative control, max CPE), a column with cells but no compound or virus (positive control, minimum CPE), and a column with no cells or virus or compound (background plate/reagent control). The control wells with cells but no virus are given an additional 25 μL of growth media containing an equal quantity of sucrose as those wells receiving the viral stock in order to keep consistent in media and volume conditions. The outer wells of the plate are filled with 125 μL of moat media (DMEM, 1% Penn/Strep) to act as a thermal and evaporative moat around the test wells. Following a 5-day incubation period, the plates are read using ATPlite (50 uL added per well), which quantifies the amount of ATP (a measure of cell health) present in each well. Assay plates are read using the Envision luminometer. […] EC50 ranges are as follows: A<0.2 μM; B≥0.2 μM.
For orientation: Cellular ATP, detected with luciferase, serves as a proxy for viable cell number.

Assay [2] has as its system rHMPV-GFP (recombinant HMPV CAN97-83, MPV-GFP1). The experiment in a line: HMPV antiviral assay (eGFP fluorescence in Vero E6 cells). The assay is classed as cell-based. The following applies: human metapneumovirus, Vero C1008, 120 h, read-out: rHMPV-GFP EC50. On the procedure:
Method for HMPV Antiviral Assay
HMPV antiviral activity was evaluated using a recombinant version of HMPV CAN97-83 engineered to contain the coding sequence for enhanced green fluorescence protein (eGFP) in the 3′ end of the virus genome (MPV-GFP1, ViraTree). Vero E6 cells (ATCC #CCL-7) were seeded at a density of 12,000 cells/100 μL/well into 96-well cell plates (VENDOR) one day prior to the assay. On the day of screening, the cell culture medium was aspirated from the wells and cells were washed twice with serum-free Eagle's Modified Essential Medium (EMEM, ATCC #) containing 1% penicillin-streptomycin (Invitrogen) (SF-EMEM). Cell washes were performed by dispensing 100 μL SF-EMEM per well and immediately aspirating the wash medium from the well. Following the second wash step, serum-free OptiMEM (Invitrogen, Cat No.) (SF-OptiMEM) containing 0.5 μg/mL TPCK-Trypsin (VENDOR) and 1% penicillin-streptomycin was added to the cells at 50 μL/well. Compounds were added into the 96-well plates using a JANUS automated liquid handling system (VENDOR). Compounds were initially diluted 1:50 into an intermediate 96-well plate containing SF-OptiMEM prior to transfer to the assay plate (25 μL/well). Each of the test compounds were tested in duplicate wells at final concentrations starting from 8 μM or 2 μM using ½ stepwise dilutions for a total of 8 points. Virus infection was performed by preparing a working stock of MPV-GFP1 at a multiplicity of infection (MOI) equal to 0.05/25 μL and aliquoting 25 μL of virus inoculum to the compound and positive control wells. SF-OptiMEM was added (25 μL/well) to the appropriate wells to serve as a virus-free negative control for the assay. The final DMSO concentration of all wells is 0.5%. Plates were incubated at 32° C., 5% CO2 for 5 days. After 5 days incubation, eGFP fluorescence intensity was measured at […] using a Spectramax i3X plate reader (VENDOR).
Percent viral inhibition was calculated using the following equation: y=[[…](XQ/XP)]×100 Where XQ is the fluorescence intensity measured in a well containing recombinant MPV-GFP1-infected, compound-treated cells and XP is the average fluorescence intensity measured in the wells containing untreated cells infected with recombinant virus. EC50 values were then calculated by non-linear regression using a four-parameter curve logistic equation. The curve fit model employed was XLFit Dose Response One Site Model 200: y=(A+(B/(1+((x/C)^D)))) Where A is the minimum y value, B is the maximum y value, C is the log EC50 value, and D is the slope factor. The EC50 for each compound is listed in Table 2 and EC50 ranges are as follows: A<0.2 μM; B≥0.2 μM.

The mark [3] stands for this setting: 120 h, Hep-2 cells, MOI 0.1, 5-day incubation, ATPlite.

For the molecule `COc1cc(C(=O)NC[C@](O)(c2cc3c(c(-c4ccc(F)cc4)n2)OC[C@]3(C)n2cnnc2)C2CC2)ccc1OC1CC1` [Example 15, 4-cyclopropoxy-N-((S)-2-cyclopropyl-2-((R)-7-(4-fluorophenyl)-3-methyl-3-(4H-1,2,4-triazol-4-yl)-2,3-dihydrofuro[2,3-c]pyridin-5-yl)-2-hydroxyethyl)-3-methoxybenzamide], the EC50 was below 0.2 µM in assay [1] (setting [3]) and above 0.2 µM in assay [2].

As to `COc1cc(C(=O)NC[C@](O)(c2cc3c(c(-c4ccc(F)cc4)n2)OC[C@]3(C)c2nnn[nH]2)C(F)(F)F)cc2cccnc12` [Example 19, 8-methoxy-N-((S)-3,3,3-trifluoro-2-((S)-7-(4-fluorophenyl)-3-methyl-3-(1H-tetrazol-5-yl)-2,3-dihydrofuro[2,3-c]pyridin-5-yl)-2-hydroxypropyl)quinoline-6-carboxamide], the EC50 in assay [1] (setting [3]) is above 0.2 µM.

For the molecule `COc1cc(C(=O)NC[C@](O)(c2cc3c(c(-c4ccc(F)cc4)n2)OC[C@]3(C)n2ccnn2)C(F)(F)F)ccc1OC1CC1` [Example 11, 4-cyclopropoxy-3-methoxy-N-((S)-3,3,3-trifluoro-2-((R)-7-(4-fluorophenyl)-3-methyl-3-(1H-1,2,3-triazol-1-yl)-2,3-dihydrofuro[2,3-c]pyridin-5-yl)-2-hydroxypropyl)benzamide], the results for the concentration for a half-maximal effect (EC50) in assay [1] (setting [3]) and in assay [2] were below 0.2 µM and above 0.2 µM, respectively.

As to `COc1cc(C(=O)NC[C@](O)(c2cc3c(c(-c4ccc(F)cc4)n2)OC[C@]3(C)n2cnnc2)C(F)(F)F)cc2cccnc12` [Example 7, 8-methoxy-N-((S)-3,3,3-trifluoro-2-((R)-7-(4-fluorophenyl)-3-methyl-3-(4H-1,2,4-triazol-4-yl)-2,3-dihydrofuro[2,3-c]pyridin-5-yl)-2-hydroxypropyl)quinoline-6-carboxamide], the EC50 in assay [1] (setting [3]) was above 0.2 µM.

For the molecule `COc1cc(C(=O)NC[C@](O)(c2cc3c(c(-c4ccc(F)cc4)n2)OC[C@@]3(n2cnnc2)C(F)(F)F)C2CC2)ccc1OC1CC1` [Example 3, 4-cyclopropoxy-N-((S)-2-cyclopropyl-2-((R)-7-(4-fluorophenyl)-3-(4H-1,2,4-triazol-4-yl)-3-(trifluoromethyl)-2,3-dihydrofuro[2,3-c]pyridin-5-yl)-2-hydroxyethyl)-3-methoxybenzamide], the EC50 in assay [1] (HEp-2, 120 h) is below 0.2 µM; in assay [2] it was above 0.2 µM.

On to `COc1cc(C(=O)NC[C@](O)(c2cc3c(c(-c4ccc(F)cc4)n2)OC[C@]3(C)n2cccc2)C(F)(F)F)cc2cccnc12` [Example 10, 8-methoxy-N-((S)-3,3,3-trifluoro-2-((R)-7-(4-fluorophenyl)-3-methyl-3-(1H-pyrrol-1-yl)-2,3-dihydrofuro[2,3-c]pyridin-5-yl)-2-hydroxypropyl)quinoline-6-carboxamide], for which, in assay [1] (setting [3]), the EC50 is above 0.2 µM.

As for `COc1cc(C(=O)NC[C@](C)(O)c2cc3c(c(-c4ccc(F)cc4)n2)OC[C@@]3(n2cnnc2)C(F)(F)F)ccc1OC1CC1` [Example 2, 4-cyclopropoxy-N-((S)-2-((R)-7-(4-fluorophenyl)-3-(4H-1,2,4-triazol-4-yl)-3-(trifluoromethyl)-2,3-dihydrofuro[2,3-c]pyridin-5-yl)-2-hydroxypropyl)-3-methoxybenzamide], the EC50 in assay [1] (setting [3]) was below 0.2 µM; in assay [2] it was above 0.2 µM.

As for `COc1cc(C(=O)NC[C@](O)(c2cc3c(c(-c4ccc(F)cc4)n2)OC[C@]3(C)c2cnn[nH]2)C(F)(F)F)cc2cccnc12` [Example 18, 8-methoxy-N-((S)-3,3,3-trifluoro-2-((S)-7-(4-fluorophenyl)-3-methyl-3-(1H-1,2,3-triazol-5-yl)-2,3-dihydrofuro[2,3-c]pyridin-5-yl)-2-hydroxypropyl)quinoline-6-carboxamide], the half-maximal effective concentration (EC50) is below 0.2 µM in assay [1] (setting [3]) and above 0.2 µM in assay [2].

For the molecule `COc1cc(C(=O)NC[C@](O)(c2cc3c(c(-c4ccc(F)cc4)n2)OC[C@]3(C)c2ncc[nH]2)C(F)(F)F)cc2cccnc12` [Example 20, 8-methoxy-N-((S)-3,3,3-trifluoro-2-((S)-7-(4-fluorophenyl)-3-(1H-imidazol-2-yl)-3-methyl-2,3-dihydrofuro[2,3-c]pyridin-5-yl)-2-hydroxypropyl)quinoline-6-carboxamide], the EC50 in assay [1] (setting [3]) was below 0.2 µM; in assay [2], above 0.2 µM.

In the case of `COc1cc(C(=O)NC[C@](O)(c2cc3c(c(-c4ccc(F)cc4)n2)OC[C@]3(C)n2cc(C3CC3)nn2)C(F)(F)F)ccc1OC1CC1` [Example 12, 4-cyclopropoxy-N-((S)-2-((R)-3-(4-cyclopropyl-1H-1,2,3-triazol-1-yl)-7-(4-fluorophenyl)-3-methyl-2,3-dihydrofuro[2,3-c]pyridin-5-yl)-3,3,3-trifluoro-2-hydroxypropyl)-3-methoxybenzamide], in assay [1] (setting [3]), the half-maximal effective concentration (EC50) is below 0.2 µM.

`C[C@]1(c2nc3ccccc3[nH]2)COc2c1cc([C@@](O)(CNC(=O)c1cc(OC3CC3)c3ncccc3c1)C(F)(F)F)nc2-c1ccc(F)cc1` [Example 21, N-((S)-2-((S)-3-(1H-benzo[d]imidazol-2-yl)-7-(4-fluorophenyl)-3-methyl-2,3-dihydrofuro[2,3-c]pyridin-5-yl)-3,3,3-trifluoro-2-hydroxypropyl)-8-cyclopropoxyquinoline-6-carboxamide]: the EC50 in assay [1] (setting [3]) was below 0.2 µM; in assay [2], above 0.2 µM.

On to `COc1cc(C(=O)NC[C@](C)(O)c2cc3c(c(-c4ccc(F)cc4)n2)OC[C@]3(C)n2cnnc2)cc2cccnc12` [Example 14, N-((S)-2-((R)-7-(4-fluorophenyl)-3-methyl-3-(4H-1,2,4-triazol-4-yl)-2,3-dihydrofuro[2,3-c]pyridin-5-yl)-2-hydroxypropyl)-8-methoxyquinoline-6-carboxamide], for which the EC50 in assay [1] (setting [3]) was above 0.2 µM.

As to `COc1cc(C(=O)NC[C@](O)(c2cc3c(c(-c4ccc(F)cc4)n2)OC[C@@]3(n2ccnc2)C(F)(F)F)C2CC2)ccc1OC1CC1` [Example 4, 4-cyclopropoxy-N-((S)-2-cyclopropyl-2-((R)-7-(4-fluorophenyl)-3-(1H-imidazol-1-yl)-3-(trifluoromethyl)-2,3-dihydrofuro[2,3-c]pyridin-5-yl)-2-hydroxyethyl)-3-methoxybenzamide], in assay [1] (HEp-2, 120 h), the EC50 is below 0.2 µM.

Regarding `COc1cc(C(=O)NC[C@](O)(c2cc3c(c(-c4ccc(F)cc4)n2)OC[C@]3(C)n2ccnc2)C(F)(F)F)cc2cccnc12` [Example 8, 8-methoxy-N-((S)-3,3,3-trifluoro-2-((R)-7-(4-fluorophenyl)-3-(1H-imidazol-1-yl)-3-methyl-2,3-dihydrofuro[2,3-c]pyridin-5-yl)-2-hydroxypropyl)quinoline-6-carboxamide], in assay [1] (setting [3]), the EC50 is below 0.2 µM.

Broadly, the EC50 is the concentration giving half of the maximal effect.
